Entries after “also recorded” stand apart in the source; their conditions may differ.
Tests used:
[1] = test system: human tau; assay: Fluorescence polarization competing assay, tau; format: binding; conditions: 2.5 μM tau, 0.1 μM FITC-labeled DEPTAC; 37 °C, 30 min
Method: Purified human tau and PP2A-Bα (PPP2R1A) were obtained from AtaGenix (Wuhan, China), and concentrated using ultrafiltration tubes (Beyotime). In basic binding assays, tau or PP2A-Bα was aliquoted into serial dilutions with a buffer containing 20 mM Tris-HCl, 150 mM NaCl, and 0.5 mM 1,4-Dithiothreitol (pH 7.4), and incubated with 0.1 μM FITC-labeled DEPTAC, FITC-labeled control peptide and FITC (9:1 vol/vol), respectively, in a black 384-well plates (Corning) under 37 °C for 30 min. In competition binding assays, a mixture of 2.5 μM tau or PP2A-Bα and 0.1 μM FITC-labeled DEPTAC were incubated with increasing amounts of unlabeled-DEPTAC under 37 °C for 30 min. Fluorescence intensity was measured by a Biotek Synergy 2 microplate reader with the wavelengths of 480 nm (60) (Ex)/560 nm (40) (Em). The polarization measurements were corrected for background contributions to the measured intensity by subtracting the parallel and perpendicular intensity readings by the vehicle-only wells from the intensity readings for each data point. Fluorescence polarization (P) was calculated by the formula P = (I║ − I┴) / (I║ + I┴), where I║ was the intensity of emitted light polarized parallel to the excitation light, and I┴ was the intensity of emitted light polarized perpendicular to the excitation light.

[2] = test system: primary rat hippocampal neurons; assay: Cell penetrability assessment in cultured primary hippocampal neurons; format: in vitro ADME; conditions: FITC-labeled DEPTAC 100 μM, 24 h, fixed; laser-scanning microscopy (fluorescence)
Method: Primary hippocampal neurons were prepared from E12–E15 days SD rat embryos. Briefly, pregnant rats were acutely executed, hippocampus was dissected on ice and gently minced in DME/F12 (Hyclone) then suspended in 0.125% (vol/vol) trypsin solution at 37 °C for 20 min. Enzymatic activity was stopped by fetal bovine serum. Neurons were initially kept in 10% FBS-containing DME/F12 for 4–6 h, and subsequently cultured in Neurobasal (Hyclone) with 2% B27, 1% glutamax and 1% penicillin–streptomycin (Thermo Fisher Scientific) in dishes pre-coated with 100 μg/mL poly-D-lysine. Serum was gradually removed by replacing half of the medium for each time within the following 2 days. Especially, to inhibit the proteasome-dependent proteolysis, the cultured hippocampal neurons were treated with 5 μM MG132 for 5 h before harvest.
FITC-labeled DEPTAC (100 μM) was dissolved in sterilized water, and administrated into the medium of cultured primary rat hippocampal neurons for 24 h. Neurons were fixed with 4% paraformaldehyde, co-stained with DAPI (Beyotime), and then washed with PBS for 3 × 5 min. FITC was observed under a laser-scanning microscopy (Zeiss).

[3] = test system: microtubules in neurites of hippocampal neurons of Tau368 mice; assay: Electron microscopy of microtubule bundles; format: in vivo, mouse; conditions: dox 2 months
Method: For 2-month male C57BL/6 mice, 10 mM FITC-labeled or unlabeled-DEPTAC were directly injected through the tail vein or lateral ventricle for the evaluation of BBB-penetrability. For 9-month 3×Tg AD mice or Tau368 (20–30 g body weight), unlabeled-DEPTAC (5 mM, 1 μL for each time) was delivered for once into the lateral ventricle through direct stereotaxic injection, or repeatedly administrated through guiding cannulas (RWD, Shenzhen, China) implanted into the lateral ventricle once every 3 days for a consecutive month to test its dephosphorylation efficiency. Mice were restricted in a custom designed device and stayed awake during drug administration, and sacrificed at 24 h post the single or last DEPTAC administration.
Mice were killed by overdose 1% pentobarbital sodium. Hippocampal tissues were isolated on ice, fixed in 2.5% glutaraldehyde at 4 °C for 24 h, washed in 0.1 M phosphate buffer, and post-fixed in 1% osmium acid for 2 h. After washed with phosphate buffer, tissues were dehydrated in increasing gradient of ethanol (30–100%), and incubated in turn with acetone/epoxy (2:1), acetone/epoxy (1:1) and epoxy for 12 h each at 37 °C. Tissues were subsequently embedded in epoxy at 37 °C for 48 h. Sections of 100 nm were sliced using a ultramicrotome (EM UC7, Leica), and stained in a buffer containing 2% uranium acetate and lead citrate at room temperature for 15 min. Images were taken by a transmission electron microscope (Tecnai G^2 20 TWIN, FEI). Bundles density and length were analyzed using ImageJ.

[4] = test system: Tau368 mice; assay: Object-place recognition test; format: in vivo, mouse
Method: Mice were repeatedly handled during DEPTAC administration before behavioral tests. For object-place recognition in the […], mice were placed in a box (50 × 50 × 50 cm) marked with a visual cue on the wall, and two identical objects (plastic toys) were placed at the two different corners. Each mouse was allowed to freely explore for 5 min, and then removed from the box for 2 min, during which the box and the objects were cleaned with 75% ethanol. Pseudorandomly, one of the two objects (object B) was moved to a new corner while the other object (object A) remained unmoved. In the test phase, mice were allowed to freely explore in the box for another 5 min. Videos were recorded and analyzed online using an ANY-maze video tracking system (Stoelting). The time mice stayed around each object was counted as exploring; and the preference ratio was calculated as the exploring time (B − A) / (B + A).

[5] = test system: Tau368 mice; assay: Novel-object recognition test; format: in vivo, mouse
Method: Novel-object recognition tests were performed one day after the object-place recognition. A similar protocol was used except that object B was replaced by a novel object (object C) in the test phase, and mice preference for the novel object was measured.

[6] = then 1-month DEPTAC, *p < 0.05, n = 5 mice, 12–23 view fields
[7] = dox-treated Tau368 mice, 1-month DEPTAC after stopping dox, *p < 0.05, n = 10–15 mice

**Q.** Which “reversal of FITC-DEPTAC/tau polarization by increased amount of unlabeled-DEPTAC” value [1] does the source give for “(1) YQQYQDATADEQG, originates from the porcine β-tubulin 422–434 for recognizing and binding tau proteins.[5],[6] (2) GSGS, a linker for increasing the flexibility of the peptide.[15] (3) KKVAVVRTPPKSP, for recruiting PP2A-Bα,[16] and (4) RRRRRRRR [DEPTAC, DEPhosphorylation TArgeting Chimera; 38 amino acid residues, C185H314N72O56]” here?
**A.** both were reversed

**Q.** What about the “neuron penetrability in vitro” value [2] of the same substance?
**A.** high neuron penetrability; also recorded: High cell penetrability

**Q.** And the “density of microtubule bundles” value [3, 6]?
**A.** significantly reversed

**Q.** What about the “length of microtubule bundles” value [3, 6] of the same substance?
**A.** significantly reversed

**Q.** And the “microtubule disassembly in morphology” value ([3]; then DEPTAC for a consecutive month)?
**A.** efficiently reversed

**Q.** And the “object-place recognition in control mice” value ([4]; Tau368 mice treated with NW)?
**A.** only limitedly affected

**Q.** And the object-place recognition impairment [4, 7]?
**A.** remarkably ameliorated; also recorded: rescued

**Q.** And the “novel-object recognition in control mice” value ([5]; Tau368 mice treated with NW)?
**A.** only limitedly affected

**Q.** What about the novel-object recognition impairment [5, 7] of the same substance?
**A.** remarkably ameliorated; also recorded: rescued
